Laboratory results: PMC10740580, “Benzothiazole-Phthalimide Hybrids as Anti-Breast Cancer and Antimicrobial Agents” (Antibiotics, 2023)

Key:
MDA-MB-231 cells [1] = test: Wound-healing assay (cell migration); type: cell-based, human; details: 3h at its IC50 value
Description: Thus, its ability to prevent the migration of MDA-MB-231 was tested by means of the wound-healing assay. Confluent monolayers of cells were cultivated and plated before being scraped to create a wound (see Experimental Section) and treated with compound 3h at concentrations corresponding to its IC50 value (Table 2) for 24 and 48 h, or DMSO (Ctrl). These distinct endpoint times were experimentally defined since MDA-MB-231 cells have a high growth rate and frequently give rise to metastases in vivo. In fact, 48 h were sufficient for the wound closure in the control cells, treated using only the vehicle.
Confluent monolayers of MDA-MB-231 cells formed after the cells were plated on twelve-well plates and grown in full media. […] A cell imager microscope (JuLi Smart fluorescence, NanoEnTek Inc., Seoul, Republic of Korea) was used to take the pictures. The percentage of wound closure used to express the cell migration toward the wounds was: wound closure%=[(At0−At∆h)÷[…]]×100% for which At0 is the area of wound measured immediately after scratching and At∆h is the area of wound measured 48 h after scratching. […] The collected images were analyzed with the JuLI^TM smart fluorescent cell viewer (NanoEnTek Inc., Seoul, Republic of Korea).
Figure 3 Wound-healing assay conducted on MDA-MB-231 cells treated with compound 3h or vehicle (Ctrl, DMSO). […] (B): quantitative analysis of wound closure. […]

MDA-MB-231 cells [2] = test: TUNEL assay (DNA damage); type: cell-based, human; details: 50 μM, 24 h
Description: To further assess the effect of 3h treatment in MDA-MB-231, the terminal deoxynucleotidyl transferase dUTP nick-end labeling (TUNEL) assay was used. Thus, 3h or Thalidomide, as reference drug, were administered to the cells, for 24 h, at 25 and 50 μM concentrations, respectively, or with only the vehicle (DMSO), as negative control and then processed as outlined in the experimental section. […] Nuclei were counterstained with blue DAPI (Figure 2, panels A), and merge channels were also shown (Figure 2, panels C), where it is evident the perfect superposition of green and blue signals. […] Images taken from bright fields were also included (Figure 2, panels D).
DNA damage and cell death were analyzed by means of the TUNEL assay as indicated by the manufacturer’s protocols (CF™488A TUNEL Assay Apoptosis Detection Kit, Biotium, Hayward, CA, USA), with few changes, as in [42]. DAPI staining (0.2 μg/mL, Sigma Aldrich, Milan, Italy) was adopted for cell nuclei. Observations were made at 20× magnification using a fluorescence microscope (Leica DM 6000, Leica Microsystem Srl, Buccinasco, Italy). LAS-X software (Version: 3.5.7.23225; Leica Microsystem Srl, Buccinasco, Italy) was employed for the acquisition and processing of the images. Images are representative of two separate experiments from which different fields were acquired.
Figure 2 TUNEL assay. […]

BALB/3T3 cells = test: ROS protection assay (DCFH-DA, H2O2-induced); type: cell-based, mouse; details: 160 μM, BALB/3T3, DCFH-DA
Description: Cells were treated for 24 h, and N-acetylcystein (NAC), a compound well-known for its antioxidant capacity, was used as a reference molecule. […] Compound 3h was able to reduce ROS formation by 61.4 ± 2% at the maximum concentration of 160 μM in the BALB/3T3 cells, as shown by the quantification of fluorescence intensity, proving compound 3h to be a good ROS scavenger.
ROS production was detected using the oxidation-sensitive fluorescent probe 2′,7′-dichlorodihydrofluorescein diacetate (DCFH-DA, D6665; Sigma-Aldrich, St. Louis, MO, USA) by modifying the method described by Wang and James. A black 96-well cell culture plate (Costar, Sigma Aldrich, St. Louis, MO, USA) was used to seed viable cells. After 24 h, the cells were treated with different concentrations of compound 3h (0.1–160 µM) for 1 h at 37 °C in 5% CO2. At the end of the treatment, cells were incubated with 2′,7′-dichlorofluorescein diacetate (DCFH-DA) for 30′, used at a concentration of 25 µM, in 5% CO2. […] The formation of fluorescent dichlorofluorescein (DCF), due to the oxidation of DCFH in the presence of ROS, was read at 530 nm using a microplate reader, the Tecan Infinite M1000 Pro (Tecan, Cernusco S.N., Italy), and DMSO medium was used for control cells. The data were analyzed for statistical significance (p < 0.0001) using a one-way ANOVA, followed by Dunnett’s test performed by GraphPad Prism 9. […]

O=C1c2ccccc2C(=O)N1c1nc2ccc(Oc3ccccc3)cc2s1 [3h, 2-[6-Phenoxy-1,3-benzothiazol-2-yl]-1H-isoindole-1,3(2H)-dione]
prevention of total wound closure, 24 h (MDA-MB-231 cells [1]; 24 h): ~ 23%
prevention of total wound closure, 48 h (MDA-MB-231 cells [1]; 48 h): ~ 26%
DNA damage (TUNEL, green nuclear fluorescence) (MDA-MB-231 cells [2]): promoted DNA damage
reduction of ROS formation (BALB/3T3 cells): 61.4 ± 2%
